Data on eight compounds can be found in patent US20190185518A9, “WARHEAD-CONTAINING PEPTIDOMIMETIC MACROCYCLES AS MODULATORS OF BFL-1” (AILERON Therapeutics, Inc., priority 2017, published 2019).

By IC50 is commonly meant the point on the concentration scale where inhibition reaches its midpoint. The low end stands for inhibition by little substance, the high end for a need for much substance. Broadly, the Ki is a dissociation constant, usually derived from enzyme kinetics or from competition with a known ligand.

Structures are written as SMILES. Positions of bridges follow the written chain, without caps; N, C: chain ends. Non-standard residues stand in square brackets, D forms with d. Residues, ends and D or L forms follow the SMILES beside them. R8 = C=CCCCCCC[C@@](C)(N)C(=O)O; Cit = NC(=O)NCCC[C@H](N)C(=O)O; S5 = C=CCCC[C@](C)(N)C(=O)O

In one assay the test system is Mcl-1, Bcl-xL, Bcl-2. In words: BCL-2 family selectivity profile. It is filed as binding. From the text: The binding spectrum of stapled BIM BH3 peptides were tuned for BCL-2 family selectivity. […] ABT-199 is venetoclax, and † represents values reported in the literature.
The test system of assay [1] is A375-P melanoma cells. Briefly: Cell viability (CellTiter-Glo), A375-P. It is filed as cell-based. The note with it: 40 μM. The procedure:
(§1) Cancer cells were cultured using a standard culture medium containing 10% fetal bovine serum (FBS) and penicillin-streptomycin (A375P: DMEM; SK-MEL-2, SK-MEL-28: EMEM). Cells were plated in 96-well plates (5×10^3 cells per well) and, after overnight incubation, treated with the indicated concentrations of Stapled Peptides in the corresponding medium supplemented with 5% FBS for the indicated durations. Cell viability and caspase-3/7 activation was measured using CellTiter-Glo and Caspase-Glo 3/7 chemiluminescence reagents (Promega), respectively. Luminescence was detected by a microplate reader (Spectramax M5, Molecular Devices).
For orientation: ATP-based viability assays read luminescence as a measure of living cells.

For assay [2], the system named is SK-MEL-2 melanoma cells. In words: Cell viability (CellTiter-Glo), SK-MEL-2. It counts as cell-based. The note with it: 40 μM. The procedure: as §1
Assay [3] has as its system SK-MEL-28 melanoma cells. Briefly: Cell viability (CellTiter-Glo), SK-MEL-28. It is filed as cell-based. Conditions: 40 μM. The protocol:
as §1

Assay [4] has as its system A375-P melanoma cells. Briefly: Caspase-3/7 activation (Caspase-Glo 3/7), A375-P. It counts as cell-based. Conditions: A375-P cells, 40 μM. The protocol: as §1
The test system of assay [5] is SK-MEL-2 melanoma cells. In words: Caspase-3/7 activation (Caspase-Glo 3/7), SK-MEL-2. It is filed as cell-based. The note with it: SK-MEL-2 cells, 40 μM. The procedure: as §1
The test system of assay [6] is SK-MEL-28 melanoma cells. In words: Caspase-3/7 activation (Caspase-Glo 3/7), SK-MEL-28. It counts as cell-based. The note with it: SK-MEL-28 cells, 40 μM. The protocol: as §1
The subject of assay [7] is ABT-199 resistant Burkitt lymphoma Raji cells. Briefly: WST-1 anti-proliferative activity in Raji cells. Conditions: TABLE 9; Raji cell proliferation. It is filed as cell-based, Human. From the text:
WST-1 is a cell proliferation reagent that is used in colorimetric assays designed to measure the relative proliferation rates of cells in culture. The assay is based on the conversion of the tetrazolium salt WST-1 into a colored dye by mitochondrial dehydrogenase enzymes. The soluble salt is released into the media. Within a given time period, the reaction produces a color change that is directly proportional to the amount of mitochondrial dehydrogenase in a culture. The WST-1 assay measures the net metabolic activity of cells.
Background: Tetrazolium assays rely on reduction of a dye to a coloured formazan, in cell work by metabolically active cells.

The target of the next assay is Mcl-1 (Homo sapiens, UniProt Q07820). Briefly: Ki determination for Mcl-1 (BCL-2 family binding spectrum). The note with it: TABLE 6; read-out: Mcl-1 Ki. The essentials: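 Binding to Mcl-1 was measured as displacement of a fluorescein-labelled macrocyclic peptidomimetic, read by fluorescence polarization. Constants were fitted by nonlinear regression.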
In another assay the target is Bcl-xL (Homo sapiens, UniProt Q07817). In words: Ki determination for Bcl-xL (BCL-2 family binding spectrum). The note with it: TABLE 6; read-out: Bcl-xL Ki. Summed up:
(§2)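 Competitive fluorescence polarization: compounds (1 nM–1 mM) with 25 nM fluoresceinated peptidomimetic macrocycle and 50 nM protein in 140 mM NaCl, 50 mM Tris-HCl pH 7.4, 30 min at room temperature. Constants from nonlinear regression.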

In a further assay the target is Bcl-2 (Homo sapiens, UniProt P10415). Briefly: Ki determination for Bcl-2 (BCL-2 family binding spectrum). The note with it: TABLE 6; read-out: Bcl-2 Ki. The essentials:
as §2

Mcl-1, sequence (Q07820 whole entry, species assumed): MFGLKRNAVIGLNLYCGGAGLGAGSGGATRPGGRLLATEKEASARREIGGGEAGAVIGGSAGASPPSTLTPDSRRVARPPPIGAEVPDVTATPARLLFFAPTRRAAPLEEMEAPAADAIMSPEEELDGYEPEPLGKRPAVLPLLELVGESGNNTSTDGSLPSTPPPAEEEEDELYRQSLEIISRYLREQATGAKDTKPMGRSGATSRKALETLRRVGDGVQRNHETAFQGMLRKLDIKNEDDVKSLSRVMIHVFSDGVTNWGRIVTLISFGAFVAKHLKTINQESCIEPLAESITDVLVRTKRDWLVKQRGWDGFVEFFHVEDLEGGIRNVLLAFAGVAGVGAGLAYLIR
Bcl-2, sequence (P10415 whole entry, species assumed): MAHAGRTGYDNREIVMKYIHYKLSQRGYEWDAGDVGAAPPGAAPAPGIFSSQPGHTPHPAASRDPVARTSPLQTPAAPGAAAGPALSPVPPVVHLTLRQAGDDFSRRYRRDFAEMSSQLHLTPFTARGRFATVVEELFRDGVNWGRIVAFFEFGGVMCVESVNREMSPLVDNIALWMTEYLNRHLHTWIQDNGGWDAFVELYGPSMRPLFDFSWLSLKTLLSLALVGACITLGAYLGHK
Bcl-xL, sequence (Q07817 whole entry, species assumed): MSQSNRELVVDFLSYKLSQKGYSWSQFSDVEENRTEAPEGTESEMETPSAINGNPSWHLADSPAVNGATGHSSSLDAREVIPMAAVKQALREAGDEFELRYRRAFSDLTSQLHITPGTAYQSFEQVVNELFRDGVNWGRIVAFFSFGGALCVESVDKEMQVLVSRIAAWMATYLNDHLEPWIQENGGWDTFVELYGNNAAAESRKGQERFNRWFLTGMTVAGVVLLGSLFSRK

Take `CC[C@H](C)[C@H](NC(C)=O)C(=O)N[C@@H](Cc1c[nH]c2ccccc12)C(=O)N[C@H](C(=O)N[C@@H](C)C(=O)N[C@@H](CCC(N)=O)C(=O)N[C@@H](CCC(=O)O)C(=O)N[C@@H](CC(C)C)C(=O)N[C@@H](CCCNC(=N)N)C(=O)N[C@@]1(C)CCCC=CCCC[C@@](C)(C(=O)N[C@@H](Cc2ccccc2)C(=O)N[C@@H](CC(N)=O)C(=O)N[C@@H](C)C(=O)N[C@@H](Cc2ccc(O)cc2)C(=O)N[C@@H](Cc2ccc(O)cc2)C(=O)N[C@@H](C)C(=O)N[C@@H](CCCNC(=N)N)C(=O)N[C@@H](CCCNC(=N)N)C(N)=O)NC(=O)[C@H](CC(=O)O)NC(=O)CNC(=O)[C@H]([C@@H](C)CC)NC1=O)[C@@H](C)CC` [BIM SAHBA1]: the Profile result in the assay with Mcl-1, Bcl-xL, Bcl-2 (TABLE 8) is “Pan-selective”. The proliferation result in the assay on A375-P melanoma cells [1] (A375-P cells), in the assay with SK-MEL-2 melanoma cells [2] (SK-MEL-2 cells) and with SK-MEL-28 melanoma cells [3] (SK-MEL-28 cells) was “neither BIM SAHBA1 nor Aileron peptide 1 affected proliferation” in each case. For the same compound, the “% cell viability” value was “had no effect on % viability” in the assay with A375-P melanoma cells [1] (A375-P, 5% serum); “had no effect on % viability” in the assay with SK-MEL-2 melanoma cells [2] (SK-MEL-2, 5% serum); “had no effect on % viability” in the assay on SK-MEL-28 melanoma cells [3] (SK-MEL-28, 5% serum). Also, the apoptosis induction entry in the assay with A375-P melanoma cells [4] was “neither BIM SAHBA1 nor Aileron peptide 1 affected proliferation and apoptosis induction”; in the assay on SK-MEL-2 melanoma cells [5] it was “neither BIM SAHBA1 nor Aileron peptide 1 affected proliferation and apoptosis induction”; in the assay on SK-MEL-28 melanoma cells [6] it was “neither BIM SAHBA1 nor Aileron peptide 1 affected proliferation and apoptosis induction”. This compound also showed an IC50 in assay [7] of 23700 nM.
For the compound `CC[C@H](C)[C@H](NC(C)=O)C(=O)N[C@@H](Cc1c[nH]c2ccccc12)C(=O)N[C@H](C(=O)N[C@@H](C)C(=O)N[C@@H](CCC(N)=O)C(=O)N[C@@H](C)C(=O)N[C@@H](CC(C)C)C(=O)N[C@@H](CCCNC(=N)N)C(=O)N[C@]1(C)CCCCCCC=CCCC[C@@](C)(C(=O)N[C@@H](Cc2ccc(O)cc2)C(=O)N[C@@H](Cc2ccc(O)cc2)C(=O)N[C@@H](C)C(N)=O)NC(=O)[C@H](CC(N)=O)NC(=O)[C@H](Cc2ccccc2)NC(=O)[C@H](CCC(N)=O)NC(=O)[C@H](CC(=O)O)NC(=O)CNC(=O)[C@H]([C@@H](C)CC)NC1=O)[C@@H](C)CC` [compound 2] (Ac-IWIAQALR[R8]IGDQFN[S5]YYA-NH2; staple 9-16), the Ki worked out at 5.2 nM on Mcl-1, 12 nM at Bcl-xL and 67 nM on Bcl-2. In the assay with Mcl-1, Bcl-xL, Bcl-2 (TABLE 6), the Profile entry is on record as “Pan-selective”.
Taken in the same sequence, the figures for `CC[C@H](C)[C@H](NC(C)=O)C(=O)N[C@@H](Cc1c[nH]c2ccccc12)C(=O)N[C@H](C(=O)N[C@@H](C)C(=O)N[C@@H](C)C(=O)N[C@@H](C)C(=O)N[C@@H](CC(C)C)C(=O)N[C@@H](CCCNC(=N)N)C(=O)N[C@]1(C)CCCCCCC=CCCC[C@@](C)(C(=O)N[C@@H](Cc2ccc(O)cc2)C(=O)N[C@@H](Cc2ccc(O)cc2)C(=O)N[C@@H](C)C(N)=O)NC(=O)[C@H](CC(N)=O)NC(=O)[C@H](Cc2ccccc2)NC(=O)[C@H](CCC(=O)O)NC(=O)[C@H](CC(=O)O)NC(=O)CNC(=O)[C@H]([C@@H](C)CC)NC1=O)[C@@H](C)CC` [compound 3] (Ac-IWIAAALR[R8]IGDEFN[S5]YYA-NH2; staple 9-16) were 1 nM, 1 nM, 6 nM and “Pan-selective”.
Taken in the same sequence, the figures for `CC[C@H](C)[C@H](NC(C)=O)C(=O)N[C@@H](Cc1c[nH]c2ccccc12)C(=O)N[C@H](C(=O)N[C@@H](C)C(=O)N[C@@H](C)C(=O)N[C@@H](C)C(=O)N[C@@H](CC(C)C)C(=O)N[C@@H](CCCNC(=N)N)C(=O)N[C@]1(C)CCCCCCC=CCCC[C@@](C)(C(=O)N[C@@H](Cc2ccc(O)cc2)C(=O)N[C@@H](Cc2ccc(O)cc2)C(=O)N[C@@H](C)C(N)=O)NC(=O)[C@H](CC(N)=O)NC(=O)[C@H](Cc2ccccc2)NC(=O)[C@H](CCC(N)=O)NC(=O)[C@H](CC(=O)O)NC(=O)CNC(=O)[C@H]([C@@H](C)CC)NC1=O)[C@@H](C)CC` [compound 4] (Ac-IWIAAALR[R8]IGDQFN[S5]YYA-NH2; staple 9-16) were 6 nM, 4 nM, 22 nM and “Pan-selective”.
Taken in the same sequence, the figures for `CC[C@H](C)[C@H](NC(C)=O)C(=O)N[C@@H](Cc1c[nH]c2ccccc12)C(=O)N[C@H](C(=O)N[C@@H](C)C(=O)N[C@@H](CCC(N)=O)C(=O)N[C@@H](C)C(=O)N[C@@H](CC(C)C)C(=O)N[C@@H](CCCNC(N)=O)C(=O)N[C@]1(C)CCCCCCC=CCCC[C@@](C)(C(=O)N[C@@H](Cc2ccc(O)cc2)C(=O)N[C@@H](Cc2ccc(O)cc2)C(=O)N[C@@H](C)C(N)=O)NC(=O)[C@H](CC(N)=O)NC(=O)[C@H](Cc2ccccc2)NC(=O)[C@H](C)NC(=O)[C@H](CC(=O)O)NC(=O)CNC(=O)[C@H]([C@@H](C)CC)NC1=O)[C@@H](C)CC` [compound 5] (Ac-IWIAQAL[Cit][R8]IGDAFN[S5]YYA-NH2; staple 9-16) were 7.5 nM, 110 nM, 212 nM and “Mcl-1 selective”.
For `CC[C@H](C)[C@H](NC(C)=O)C(=O)N[C@@H](Cc1c[nH]c2ccccc12)C(=O)N[C@H](C(=O)N[C@@H](C)C(=O)N[C@@H](CCC(N)=O)C(=O)N[C@@H](C)C(=O)N[C@@H](CC(C)C)C(=O)N[C@@H](CCCNC(N)=O)C(=O)N[C@]1(C)CCCCCCC=CCCC[C@@](C)(C(=O)N[C@@H](Cc2ccc(O)cc2)C(=O)N[C@@H](Cc2ccc(O)cc2)C(=O)N[C@@H](C)C(N)=O)NC(=O)[C@H](CC(N)=O)NC(=O)[C@H](Cc2ccccc2)NC(=O)[C@H](CCC(N)=O)NC(=O)[C@H](CC(=O)O)NC(=O)CNC(=O)[C@H]([C@@H](C)CC)NC1=O)[C@@H](C)CC` [compound 6] (Ac-IWIAQAL[Cit][R8]IGDQFN[S5]YYA-NH2; staple 9-16), the figures for the Ki on Mcl-1, at Bcl-xL and on Bcl-2 were 1.7 nM, 28.8 nM and 88.2 nM, respectively. Further, the Profile result in the assay on Mcl-1, Bcl-xL, Bcl-2 (TABLE 6) is “Mcl-1 selective”.
For the compound `CC[C@H](C)[C@H](NC(C)=O)C(=O)N[C@@H](Cc1c[nH]c2ccccc12)C(=O)N[C@H](C(=O)N[C@@H](C)C(=O)N[C@@H](CCC(N)=O)C(=O)N[C@@H](C)C(=O)N[C@@H](CC(C)C)C(=O)N[C@@H](CCCNC(=N)N)C(=O)N[C@]1(C)CCCCCCC=CCCC[C@@](C)(C(=O)N[C@@H](Cc2ccc(O)cc2)C(=O)N[C@@H](Cc2ccc(O)cc2)C(=O)N[C@@H](C)C(N)=O)NC(=O)[C@H](CC(N)=O)NC(=O)[C@H](C)NC(=O)[C@H](C)NC(=O)[C@H](CC(=O)O)NC(=O)CNC(=O)[C@H]([C@@H](C)CC)NC1=O)[C@@H](C)CC` [compound 7] (Ac-IWIAQALR[R8]IGDAAN[S5]YYA-NH2; staple 9-16), the Ki stood at 7.5 nM at Mcl-1, 402 nM on Bcl-xL and 140 nM at Bcl-2. The Profile result in the assay on Mcl-1, Bcl-xL, Bcl-2 (TABLE 6) is “Mcl-1 selective”.
Taken in the same sequence, the figures for `CC[C@H](C)[C@H](NC(C)=O)C(=O)N[C@@H](Cc1c[nH]c2ccccc12)C(=O)N[C@H](C(=O)N[C@@H](C)C(=O)N[C@@H](CCC(N)=O)C(=O)N[C@@H](C)C(=O)N[C@@H](CC(C)C)C(=O)N[C@@H](CCCNC(=N)N)C(=O)N[C@]1(C)CCCCCCC=CCCC[C@@](C)(C(=O)N[C@@H](Cc2ccc(O)cc2)C(=O)N[C@@H](Cc2ccc(O)cc2)C(=O)N[C@@H](C)C(N)=O)NC(=O)[C@H](CC(N)=O)NC(=O)[C@H](Cc2ccccc2)NC(=O)[C@H](CCC(N)=O)NC(=O)[C@H](CC(=O)O)NC(=O)CNC(=O)[C@H](C)NC1=O)[C@@H](C)CC` [compound 10] (Ac-IWIAQALR[R8]AGDQFN[S5]YYA-NH2; staple 9-16) were 122 nM, 1.9 nM, 4.8 nM and “Bcl-xL/Bcl-2 selective”.
